# Experimental data taken from PubChem BioAssay (NCI).
#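 Interpolation was linear, between the two tested concentrations surrounding the appropriate level; five concentrations were tested over 48 hours in 96-well plates. TGI is the concentration that stops growth completely.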
# Columns and labels:
# Test in all cases: NCI tumour cell line growth inhibition, 48 h
# COLO 205 colon = test system: COLO 205 colon
# OVCAR-5 ovarian = test system: OVCAR-5 ovarian
# EKVX NSCLC = test system: EKVX NSCLC
# A498 renal = test system: A498 renal
# HOP-62 NSCLC = test system: HOP-62 NSCLC
# HCC-2998 colon = test system: HCC-2998 colon
# HS 578T breast = test system: HS 578T breast
# A549 NSCLC = test system: A549 NSCLC
# HOP-92 NSCLC = test system: HOP-92 NSCLC
# SNB-75 CNS = test system: SNB-75 CNS
# 786-0 renal = test system: 786-0 renal
# MDA-MB-435 = test system: MDA-MB-435
# MCF7 breast = test system: MCF7 breast
# CCRF-CEM leukemia = test system: CCRF-CEM leukemia
# HCT-116 colon = test system: HCT-116 colon
# KM12 colon = test system: KM12 colon
# MOLT-4 leukemia = test system: MOLT-4 leukemia
# NCI-H23 lung = test system: NCI-H23 lung
# OVCAR-4 ovarian = test system: OVCAR-4 ovarian
# MDA-N = test system: MDA-N
# SR leukemia = test system: SR leukemia
# K-562 leukemia = test system: K-562 leukemia
# SF-539 CNS = test system: SF-539 CNS
# SK-OV-3 ovarian = test system: SK-OV-3 ovarian
# SW-620 colon = test system: SW-620 colon
# IGROV1 ovarian = test system: IGROV1 ovarian
# NCI-H226 lung = test system: NCI-H226 lung
# RXF 393 renal = test system: RXF 393 renal
# HL-60(TB) leukemia = test system: HL-60(TB) leukemia
# UACC-62 melanoma = test system: UACC-62 melanoma
# RPMI-8226 leukemia = test system: RPMI-8226 leukemia
# BT-549 breast = test system: BT-549 breast
# HT29 colon = test system: HT29 colon
# NCI-H522 lung = test system: NCI-H522 lung
# LOX IMVI melanoma = test system: LOX IMVI melanoma
# PC-3 prostate = test system: PC-3 prostate
# U251 CNS = test system: U251 CNS
# HCT-15 colon = test system: HCT-15 colon
# SNB-19 CNS = test system: SNB-19 CNS
# SK-MEL-5 melanoma = test system: SK-MEL-5 melanoma
# SN12C renal = test system: SN12C renal
# ACHN renal = test system: ACHN renal
# TK-10 renal = test system: TK-10 renal
# SK-MEL-28 melanoma = test system: SK-MEL-28 melanoma
# T-47D breast = test system: T-47D breast
# DU-145 prostate = test system: DU-145 prostate
# UACC-257 melanoma = test system: UACC-257 melanoma
# SF-268 CNS = test system: SF-268 CNS
# OVCAR-8 ovarian = test system: OVCAR-8 ovarian
# M14 melanoma = test system: M14 melanoma
# OVCAR-3 ovarian = test system: OVCAR-3 ovarian
# NCI-H460 lung = test system: NCI-H460 lung
# UO-31 renal = test system: UO-31 renal
# NCI/ADR-RES ovarian = test system: NCI/ADR-RES ovarian
# MALME-3M melanoma = test system: MALME-3M melanoma
# SF-295 CNS = test system: SF-295 CNS
# SK-MEL-2 melanoma = test system: SK-MEL-2 melanoma
# CAKI-1 renal = test system: CAKI-1 renal
compound,measurement,setting,value
O=C(Nn1c(-c2ccccc2)nc2ccccc2c1=O)c1cccc([N+](=O)[O-])c1,TGI,COLO 205 colon,> 100000 nM
same,TGI,OVCAR-5 ovarian,> 100 µM
same,TGI,EKVX NSCLC,> 100000 nM
same,TGI,A498 renal,> 100 µM
same,TGI,HOP-62 NSCLC,> 100000 nM
same,TGI,HCC-2998 colon,> 100000 nM
same,TGI,HS 578T breast,> 100000 nM
same,TGI,A549 NSCLC,> 100 µM
same,TGI,HOP-92 NSCLC,> 100 µM
same,TGI,SNB-75 CNS,> 100000 nM
same,TGI,786-0 renal,> 100 µM
same,TGI,MDA-MB-435,> 100000 nM
same,TGI,MCF7 breast,> 100 µM
same,TGI,CCRF-CEM leukemia,> 100000 nM
same,TGI,HCT-116 colon,> 100 µM
same,TGI,KM12 colon,> 100 µM
same,TGI,MOLT-4 leukemia,> 100000 nM
same,TGI,NCI-H23 lung,> 100000 nM
same,TGI,OVCAR-4 ovarian,> 100000 nM
same,TGI,MDA-N,> 100000 nM
same,TGI,SR leukemia,> 100 µM
same,TGI,K-562 leukemia,> 100000 nM
same,TGI,SF-539 CNS,> 100000 nM
same,TGI,SK-OV-3 ovarian,> 100 µM
same,TGI,SW-620 colon,> 100 µM
same,TGI,IGROV1 ovarian,> 100 µM
same,TGI,NCI-H226 lung,> 100 µM
same,TGI,RXF 393 renal,> 100000 nM
same,TGI,HL-60(TB) leukemia,> 100000 nM
same,TGI,UACC-62 melanoma,> 100000 nM
same,TGI,RPMI-8226 leukemia,> 100000 nM
same,TGI,BT-549 breast,> 100000 nM
same,TGI,HT29 colon,> 100 µM
same,TGI,NCI-H522 lung,> 100000 nM
same,TGI,LOX IMVI melanoma,> 100000 nM
same,TGI,PC-3 prostate,> 100000 nM
same,TGI,U251 CNS,> 100 µM
same,TGI,HCT-15 colon,> 100 µM
same,TGI,SNB-19 CNS,> 100 µM
same,TGI,SK-MEL-5 melanoma,> 100000 nM
same,TGI,SN12C renal,> 100 µM
same,TGI,ACHN renal,> 100000 nM
same,TGI,TK-10 renal,> 100 µM
same,TGI,SK-MEL-28 melanoma,> 100 µM
same,TGI,T-47D breast,> 100 µM
same,TGI,DU-145 prostate,> 100 µM
same,TGI,UACC-257 melanoma,> 100 µM
same,TGI,SF-268 CNS,> 100000 nM
same,TGI,OVCAR-8 ovarian,> 100 µM
same,TGI,M14 melanoma,> 100000 nM
same,TGI,OVCAR-3 ovarian,> 100000 nM
same,TGI,NCI-H460 lung,> 100 µM
same,TGI,UO-31 renal,> 100000 nM
COc1cc2cc(C(=O)N3CC(CCl)c4ccc(NO)cc43)[nH]c2c(OC)c1OC (stereo unspecified),TGI,NCI/ADR-RES ovarian,480 nM
same,TGI,COLO 205 colon,2040 nM
same,TGI,OVCAR-5 ovarian,> 37.2 µM
same,TGI,MALME-3M melanoma,317 nM
same,TGI,EKVX NSCLC,2150 nM
same,TGI,A498 renal,> 100 µM
same,TGI,HOP-62 NSCLC,749 nM
same,TGI,HCC-2998 colon,1070 nM
same,TGI,HS 578T breast,954 nM
same,TGI,A549 NSCLC,> 100 µM
same,TGI,SNB-75 CNS,470 nM
same,TGI,MDA-MB-435,481 nM
same,TGI,SF-295 CNS,600 nM
same,TGI,MCF7 breast,> 32.8 µM
same,TGI,CCRF-CEM leukemia,1160 nM
same,TGI,SK-MEL-2 melanoma,325 nM
same,TGI,HCT-116 colon,> 100 µM
same,TGI,KM12 colon,16.3 µM
same,TGI,MOLT-4 leukemia,610 nM
same,TGI,NCI-H23 lung,166 nM
same,TGI,OVCAR-4 ovarian,774 nM
same,TGI,MDA-N,727 nM
same,TGI,SR leukemia,> 100 µM
same,TGI,K-562 leukemia,965 nM
same,TGI,SF-539 CNS,1990 nM
same,TGI,SK-OV-3 ovarian,3.01 µM
same,TGI,SW-620 colon,> 100 µM
same,TGI,IGROV1 ovarian,10.3 µM
same,TGI,RXF 393 renal,343 nM
same,TGI,HL-60(TB) leukemia,403 nM
same,TGI,UACC-62 melanoma,372 nM
same,TGI,RPMI-8226 leukemia,442 nM
same,TGI,BT-549 breast,1050 nM
same,TGI,HT29 colon,11.8 µM
same,TGI,NCI-H522 lung,354 nM
same,TGI,LOX IMVI melanoma,2560 nM
same,TGI,CAKI-1 renal,3.44 µM
same,TGI,PC-3 prostate,2050 nM
same,TGI,HCT-15 colon,> 100 µM
same,TGI,SNB-19 CNS,11.1 µM
same,TGI,SK-MEL-5 melanoma,342 nM
same,TGI,SN12C renal,11.8 µM
same,TGI,ACHN renal,723 nM
same,TGI,TK-10 renal,> 100 µM
same,TGI,SK-MEL-28 melanoma,3.22 µM
same,TGI,T-47D breast,> 42.6 µM
same,TGI,DU-145 prostate,> 31 µM
same,TGI,SF-268 CNS,749 nM
same,TGI,OVCAR-8 ovarian,11.5 µM
same,TGI,M14 melanoma,768 nM
same,TGI,OVCAR-3 ovarian,535 nM
same,TGI,NCI-H460 lung,> 37.7 µM
same,TGI,UO-31 renal,392 nM
